Results as given in US9616062B2, “Cyclin dependent kinase inhibitors and methods of use” (priority 2009, dated 2017).

Experiments:
[1] = system: primary human renal proximal tubule epithelial cells; assay: γH2AX flow cytometry assay of etoposide-induced DNA damage; type: cell-based; conditions: 0, 100 nM, 300 nM or 1 μM for 16 h, then 2.5 μM etoposide for 8 h
Protocol: Cells were pretreated for 16 hours with PD0332991 followed by 8 hours with etoposide (Etop). Cells were collected, fixed and stained with anti-γH2AX FITC and analyzed by flow cytometry. Data was analyzed using FlowJo (Treestar, Inc., Ashland, Oreg., United States of America). The % γH2AX positive cells are shown in the accompanying graph.
Primary normal human renal proximal epithelial cells (American Type Culture Collection (ATCC), Manassas, Va., United States of America) were cultured in renal epithelial cell basal media supplemented with renal epithelial cell growth kit according to the manufacturer's recommendations. […] For the γH2AX assay, cells were fixed, permeabilized, and stained with anti-γH2AX as per γH2AX Flow Kit (Millipore, Billerica, Mass., United States of America). γH2AX levels were assessed by flow cytometry. Cell proliferation was assessed by seeding 1×10^3 cells per well in a 96-well tissue culture plate in 100 μL of growth medium. […] At the end of the recovery period, cell number was quantified using CellTiter-Glo® (Promega, Fitchburg, Wis., United States of America) or WST-1 reagent (TaKaRa Bio USA, Madison, Wis., United States of America). Cellular cytotoxicity was assessed using the TOXILIGHT™ Bioassay kit (Lonza, Basel, Switzerland) which measures cytolysis by quantifying the release of Adenylate Kinase into the culture media. […]

[2] = system: RB-deficient small cell lung cancer cell lines (H69, H82, H209, H345); assay: SCLC cell proliferation, WST-1, RB-deficient lines; type: cell-based; conditions: 100 nM, all four RB-deficient cell lines
Protocol: FIG. 8: CDK4/6 inhibition potentiates proliferation of Rb deficient cells. […] Cell proliferation was assessed using WST-1 reagent. Each data point represents the mean of four replicates +/−SEM. CDK4/6 inhibition increases cell proliferation of RB-deficient cell lines.
Primary normal human renal proximal epithelial cells (American Type Culture Collection (ATCC), Manassas, Va., United States of America) were cultured in renal epithelial cell basal media supplemented with renal epithelial cell growth kit according to the manufacturer's recommendations. […] For the γH2AX assay, cells were fixed, permeabilized, and stained with anti-γH2AX as per γH2AX Flow Kit (Millipore, Billerica, Mass., United States of America). γH2AX levels were assessed by flow cytometry. Cell proliferation was assessed by seeding 1×10^3 cells per well in a 96-well tissue culture plate in 100 μL of growth medium. […] At the end of the recovery period, cell number was quantified using CellTiter-Glo® (Promega, Fitchburg, Wis., United States of America) or WST-1 reagent (TaKaRa Bio USA, Madison, Wis., United States of America). Cellular cytotoxicity was assessed using the TOXILIGHT™ Bioassay kit (Lonza, Basel, Switzerland) which measures cytolysis by quantifying the release of Adenylate Kinase into the culture media. […] 100 μL of TOXILIGHT™ reagent is added and incubated for 5 minutes and read in a luminometer at 1 second/well. […]

[3] = system: murine memory and naive T cells; assay: Homeostatic T cell proliferation in mice (BrdU incorporation, Ki67); type: in vivo, mouse
Protocol: FIG. 11A: Acute inhibition of CDK4/6 selectively suppresses memory T cell homeostatic proliferation in mice. Mice were treated with PD0332991 (150 mg/kg by oral gavage). Proliferation of T-cells were assessed using BrdU and flow cytometry.
Animals were treated with CDK4/6 inhibitor (PD0332991, open bars) or vehicle (shaded bars) for 24 hours and euthanized. Splenocytes were isolated and stained for B and T cell markers. After gating on appropriate populations, Ki67 staining was performed as an indicator of proliferation and S-phase. Error bars show +/−SEM.
Acute, pharmacologic inhibition of CDK4/6 suppresses lymphocyte proliferation with the most pronounced effect on memory T cell homeostatic proliferation and germinal center formation in mice. To determine whether inhibiting CDK4/6 affects memory cell generation and maintenance, mice were treated with selective CDK4/6 inhibitors, PD 0332991 or an unrelated selective CDK4/6 inhibitor, 2BrIC. 2BrIC was synthesized by OTAVA Chemicals (Kiev, Ukraine) and can be prepared according to methods described in Zhu et al., J. Med. Chem. 46, 2027-2030 (2003).

[4] = system: C3-TAg mice (RB-deficient breast cancer); assay: C3-Tag transgenic mouse model of basal-like breast cancer, tumor volume; type: in vivo; conditions: daily administration, 100 mg/kg daily in standard chow
Protocol: FIG. 9: CDK4/6 inhibition potentiates the efficacy of chemotherapy in mouse model of RB-deficient breast cancer. […] Data are % change in tumor volume and represents the mean of at least 15 animals per cohort +/−SEM
FIG. 10: CDK4/6 inhibition potentiates the efficacy of chemotherapy in mouse model of RB-deficient breast cancer. Mice were treated every 7 days for three weeks with carboplatin (90 mg/kg IP) alone (darkly shaded squares) or in combination with PD0332991 (150 mg/kg PO; lightly shaded squares). Data are % change in tumor volume and represents the mean of at least 15 animals per cohort +/−SEM.
The C3-TAg mice are a model of basal-like breast cancer. […] The MMTV-c-neu model expresses c-neu (the mouse ortholog of human HER2) driven by the mouse mammary tumor virus (MMTV) promoter and is a model of HER2+ breast cancer. When tumors were noted to be ˜0.2 cm^2 in size, animals were treated as described and tumor response assessed by daily caliper measurements.
The effects of CDK4/6 inhibition in the C3-Tag transgenic mouse model of basal-like breast cancer were also evaluated. […] Tumor volume was measured by caliper weekly. Tumor volume was calculated using the following formula: Volume=[(width)^2×length]/2. […] Treatments were administered on days 0, 7 and 14 and tumor volumes were measured weekly, until the mice died or were euthanized due to toxicity or tumor burden.

## CC(=O)c1c(C)c2cnc(Nc3ccc(N4CCNCC4)cn3)nc2n(C2CCCC2)c1=O [PD0332991, 6-acetyl-8-cyclopentyl-5-methyl-2-(5-piperazin-1-yl-pyridin-2-ylamino)-8H-pyrido-[2,3-d]-pyrimidin-7-one]
[1]
  etoposide-induced DNA damage (% γH2AX positive cells): abrogates etoposide-induced DNA damage
[2]
  cell proliferation (WST-1) vs DMSO: increased
[3]; 150 mg/kg by oral gavage
  in vivo BrdU incorporation of CD4+ and CD8+ murine T cells: greatest effects seen in the CD44+CD25+ memory cells
[3]; murine cells, acute inhibition
  homeostatic proliferation of memory vs naive T cells (BrdU incorporation, Ki67 expression): more significant decrease in homeostatic proliferation of memory T cells than naive T cells
[4]
  tumor growth at day 21: no effect on tumor growth
